# Results as given in paper PMC10174618, “Monoterpenoid aryl hydrocarbon receptor allosteric antagonists protect against ultraviolet skin damage in female mice” (Nature Communications, 2023).
# How the values were obtained:
# Experiment in all cases: biochemical
# Parameters in all cases: KINOMEscan scanMAX active site-directed competition binding assay, percent of control, 468 kinases
# Details in all cases: competition binding, percent of control
# TXK = TXK (Homo sapiens, UniProt P42681)
# Method in brief: (§1)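 Single-concentration screen (100 μM S-carvone) in a competition binding panel of 468 human kinases (KINOMEscan scanMAX); results given as percent of control, hit cutoff 35%.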
# GSK3B = GSK3B (Homo sapiens, UniProt P49841)
# Chain of GSK3B (P49841 whole entry): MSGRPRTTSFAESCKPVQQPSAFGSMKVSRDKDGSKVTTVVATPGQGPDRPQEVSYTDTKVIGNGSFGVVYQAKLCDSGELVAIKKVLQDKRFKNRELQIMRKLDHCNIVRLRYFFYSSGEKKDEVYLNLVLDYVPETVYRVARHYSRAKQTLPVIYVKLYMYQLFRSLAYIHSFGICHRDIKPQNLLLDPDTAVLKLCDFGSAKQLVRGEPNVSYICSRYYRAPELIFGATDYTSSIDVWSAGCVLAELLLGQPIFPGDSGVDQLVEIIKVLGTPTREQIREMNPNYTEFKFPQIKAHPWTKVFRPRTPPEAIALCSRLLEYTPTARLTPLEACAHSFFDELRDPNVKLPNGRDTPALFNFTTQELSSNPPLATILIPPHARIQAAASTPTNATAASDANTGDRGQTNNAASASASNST
# Method in brief: as §1
# MAP3K2 = MAP3K2 (Homo sapiens, UniProt Q9Y2U5)
# Method in brief: as §1
# [1] = biological target: T1, RPS6KA4(Kin.Dom.1-N-terminal) (Homo sapiens, UniProt O75676)
# T1 construct: Kin.Dom.1-N-terminal
# Method in brief: as §1
# ROCK1 = ROCK1 (Homo sapiens, UniProt Q13464)
# Method in brief: as §1
# CDK4-cyclinD1 = biological target: T2, CDK4-cyclinD1 (Homo sapiens, UniProt P11802)
# T2 construct: cyclinD1
# T2 sequence (P11802 whole entry): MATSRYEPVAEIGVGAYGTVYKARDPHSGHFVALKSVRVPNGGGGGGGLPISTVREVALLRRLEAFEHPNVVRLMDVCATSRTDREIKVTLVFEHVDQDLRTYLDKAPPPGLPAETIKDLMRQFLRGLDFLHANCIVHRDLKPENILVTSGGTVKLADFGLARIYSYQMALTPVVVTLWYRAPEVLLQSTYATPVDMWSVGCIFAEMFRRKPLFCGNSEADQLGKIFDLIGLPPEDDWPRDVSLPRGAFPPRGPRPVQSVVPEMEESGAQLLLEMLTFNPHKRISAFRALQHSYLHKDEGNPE
# T2 sequence (P24385 whole entry partner): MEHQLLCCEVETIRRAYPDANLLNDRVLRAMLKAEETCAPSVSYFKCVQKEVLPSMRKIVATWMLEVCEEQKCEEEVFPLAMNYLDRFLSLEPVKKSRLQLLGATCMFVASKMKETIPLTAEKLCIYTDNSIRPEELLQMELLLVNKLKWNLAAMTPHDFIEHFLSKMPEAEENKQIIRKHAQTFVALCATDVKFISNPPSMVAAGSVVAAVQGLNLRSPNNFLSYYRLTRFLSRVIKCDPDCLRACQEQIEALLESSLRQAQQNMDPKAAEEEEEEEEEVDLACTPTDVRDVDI
# Method in brief: as §1
# ALK(C1156Y) = ALK(C1156Y) (Homo sapiens, UniProt Q9UM73, C1156Y)
# Method in brief: as §1
# PAK2 = PAK2 (Homo sapiens, UniProt Q13177)
# Chain of PAK2 (Q13177 whole entry): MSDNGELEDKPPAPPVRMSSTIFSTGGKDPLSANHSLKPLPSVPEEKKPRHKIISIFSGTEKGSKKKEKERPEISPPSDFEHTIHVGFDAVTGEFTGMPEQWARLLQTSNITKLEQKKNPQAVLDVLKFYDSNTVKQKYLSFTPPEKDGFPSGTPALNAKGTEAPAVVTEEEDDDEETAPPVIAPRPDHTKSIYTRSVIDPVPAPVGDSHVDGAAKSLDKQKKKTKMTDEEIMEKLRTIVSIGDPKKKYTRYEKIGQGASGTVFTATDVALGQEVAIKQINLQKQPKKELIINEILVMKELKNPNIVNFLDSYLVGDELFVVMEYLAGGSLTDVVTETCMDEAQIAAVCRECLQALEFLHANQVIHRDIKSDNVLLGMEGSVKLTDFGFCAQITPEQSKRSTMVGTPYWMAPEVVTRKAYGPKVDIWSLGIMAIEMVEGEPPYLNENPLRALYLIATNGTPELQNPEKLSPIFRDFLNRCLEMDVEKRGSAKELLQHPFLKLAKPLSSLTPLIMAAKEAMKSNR
# Method in brief: as §1
# CSNK2A2 = CSNK2A2 (Homo sapiens, UniProt P19784)
# Method in brief: as §1
# ADCK4 = biological target: T3, ADCK4 (Homo sapiens, UniProt Q96D53)
# T3 construct: gene COQ8B
# Method in brief: as §1
# LZK = biological target: T4, LZK (Homo sapiens, UniProt O43283)
# T4 construct: gene MAP3K13
# T4 sequence (O43283 whole entry): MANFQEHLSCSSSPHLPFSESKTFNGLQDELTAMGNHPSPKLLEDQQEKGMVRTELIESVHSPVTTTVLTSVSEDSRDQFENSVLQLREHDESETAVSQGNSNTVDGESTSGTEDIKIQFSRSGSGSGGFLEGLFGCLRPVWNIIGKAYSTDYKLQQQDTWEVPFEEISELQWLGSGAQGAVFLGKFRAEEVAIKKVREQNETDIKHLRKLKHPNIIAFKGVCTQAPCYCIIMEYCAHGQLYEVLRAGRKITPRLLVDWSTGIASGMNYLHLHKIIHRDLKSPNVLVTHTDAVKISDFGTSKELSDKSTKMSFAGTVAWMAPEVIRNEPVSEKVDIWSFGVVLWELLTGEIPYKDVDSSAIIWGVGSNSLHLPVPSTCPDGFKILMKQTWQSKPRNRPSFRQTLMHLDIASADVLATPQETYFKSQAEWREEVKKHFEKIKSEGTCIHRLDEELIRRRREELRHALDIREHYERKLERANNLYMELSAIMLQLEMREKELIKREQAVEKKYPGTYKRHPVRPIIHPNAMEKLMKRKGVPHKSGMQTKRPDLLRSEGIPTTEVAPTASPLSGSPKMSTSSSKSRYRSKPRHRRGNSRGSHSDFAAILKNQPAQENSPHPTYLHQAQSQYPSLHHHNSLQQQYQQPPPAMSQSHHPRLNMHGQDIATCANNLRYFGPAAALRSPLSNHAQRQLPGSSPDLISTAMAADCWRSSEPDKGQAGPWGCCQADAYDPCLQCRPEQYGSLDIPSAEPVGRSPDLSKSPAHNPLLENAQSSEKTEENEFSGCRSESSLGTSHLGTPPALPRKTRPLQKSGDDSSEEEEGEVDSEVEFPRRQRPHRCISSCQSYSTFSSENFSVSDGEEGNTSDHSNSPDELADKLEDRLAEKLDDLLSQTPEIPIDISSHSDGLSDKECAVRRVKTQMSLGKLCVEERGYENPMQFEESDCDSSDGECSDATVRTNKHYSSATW
# Method in brief: as §1
# SIK = biological target: T5, SIK (Homo sapiens, UniProt P57059)
# T5 construct: gene SIK1
# Method in brief: as §1
# EGFR(G719S) = EGFR(G719S) (Homo sapiens, UniProt P00533, G719S)
# Chain of EGFR(G719S) (P00533 whole entry G719S): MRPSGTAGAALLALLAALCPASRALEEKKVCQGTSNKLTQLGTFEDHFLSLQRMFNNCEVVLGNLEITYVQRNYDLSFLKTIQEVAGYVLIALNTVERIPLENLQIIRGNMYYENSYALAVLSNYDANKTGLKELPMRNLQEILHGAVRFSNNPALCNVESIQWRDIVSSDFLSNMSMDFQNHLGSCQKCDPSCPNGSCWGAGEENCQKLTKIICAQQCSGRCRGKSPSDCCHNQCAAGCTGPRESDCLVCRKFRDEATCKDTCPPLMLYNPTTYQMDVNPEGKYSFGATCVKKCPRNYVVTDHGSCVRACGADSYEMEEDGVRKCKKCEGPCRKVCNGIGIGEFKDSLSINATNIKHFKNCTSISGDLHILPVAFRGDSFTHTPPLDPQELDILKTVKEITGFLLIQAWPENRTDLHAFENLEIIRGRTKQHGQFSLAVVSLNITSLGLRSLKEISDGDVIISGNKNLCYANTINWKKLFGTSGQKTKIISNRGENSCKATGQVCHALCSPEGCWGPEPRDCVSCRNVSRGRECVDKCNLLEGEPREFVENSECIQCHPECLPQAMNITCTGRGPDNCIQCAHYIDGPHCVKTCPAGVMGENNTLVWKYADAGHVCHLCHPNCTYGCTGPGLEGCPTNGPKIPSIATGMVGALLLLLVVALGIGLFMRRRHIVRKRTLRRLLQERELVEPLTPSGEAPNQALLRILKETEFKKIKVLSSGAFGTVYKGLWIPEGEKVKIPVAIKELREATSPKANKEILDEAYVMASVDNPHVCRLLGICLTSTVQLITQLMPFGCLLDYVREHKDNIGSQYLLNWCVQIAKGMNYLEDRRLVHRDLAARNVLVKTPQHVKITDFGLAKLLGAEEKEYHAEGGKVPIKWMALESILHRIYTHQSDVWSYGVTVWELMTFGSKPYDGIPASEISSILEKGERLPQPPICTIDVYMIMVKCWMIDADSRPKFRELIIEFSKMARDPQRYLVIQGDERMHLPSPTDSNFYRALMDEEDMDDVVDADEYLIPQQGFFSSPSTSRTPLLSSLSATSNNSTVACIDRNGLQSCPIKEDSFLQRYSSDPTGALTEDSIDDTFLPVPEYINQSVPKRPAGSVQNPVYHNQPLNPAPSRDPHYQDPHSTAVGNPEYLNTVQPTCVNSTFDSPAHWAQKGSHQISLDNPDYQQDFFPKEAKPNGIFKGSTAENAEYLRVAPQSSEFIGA
# Method in brief: as §1
# GRK3 = GRK3 (Homo sapiens, UniProt P35626)
# Method in brief: as §1
# [2] = biological target: T6, ABL1(T315I)-phosphorylated (Homo sapiens, UniProt P00519, T315I)
# T6 construct: phosphorylated
# Method in brief: as §1
# CDC2L5 = biological target: T7, CDC2L5 (Homo sapiens, UniProt Q14004)
# T7 construct: gene CDK13
# Method in brief: as §1
# MYLK4 = MYLK4 (Homo sapiens, UniProt Q86YV6)
# Chain of MYLK4 (Q86YV6 whole entry): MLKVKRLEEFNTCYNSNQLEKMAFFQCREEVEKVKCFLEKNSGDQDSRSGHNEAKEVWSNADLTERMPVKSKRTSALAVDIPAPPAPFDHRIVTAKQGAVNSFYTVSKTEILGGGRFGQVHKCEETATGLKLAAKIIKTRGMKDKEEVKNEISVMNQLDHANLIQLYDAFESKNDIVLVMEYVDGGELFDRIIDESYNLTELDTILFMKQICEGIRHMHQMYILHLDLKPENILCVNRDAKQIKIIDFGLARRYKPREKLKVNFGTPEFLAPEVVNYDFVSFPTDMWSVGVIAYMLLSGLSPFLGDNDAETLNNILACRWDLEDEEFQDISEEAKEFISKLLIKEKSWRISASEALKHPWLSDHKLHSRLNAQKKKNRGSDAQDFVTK
# Method in brief: as §1
# KIT = KIT (Homo sapiens, UniProt P10721)
# Method in brief: as §1
# BRSK2 = BRSK2 (Homo sapiens, UniProt Q8IWQ3)
# Chain of BRSK2 (Q8IWQ3 whole entry): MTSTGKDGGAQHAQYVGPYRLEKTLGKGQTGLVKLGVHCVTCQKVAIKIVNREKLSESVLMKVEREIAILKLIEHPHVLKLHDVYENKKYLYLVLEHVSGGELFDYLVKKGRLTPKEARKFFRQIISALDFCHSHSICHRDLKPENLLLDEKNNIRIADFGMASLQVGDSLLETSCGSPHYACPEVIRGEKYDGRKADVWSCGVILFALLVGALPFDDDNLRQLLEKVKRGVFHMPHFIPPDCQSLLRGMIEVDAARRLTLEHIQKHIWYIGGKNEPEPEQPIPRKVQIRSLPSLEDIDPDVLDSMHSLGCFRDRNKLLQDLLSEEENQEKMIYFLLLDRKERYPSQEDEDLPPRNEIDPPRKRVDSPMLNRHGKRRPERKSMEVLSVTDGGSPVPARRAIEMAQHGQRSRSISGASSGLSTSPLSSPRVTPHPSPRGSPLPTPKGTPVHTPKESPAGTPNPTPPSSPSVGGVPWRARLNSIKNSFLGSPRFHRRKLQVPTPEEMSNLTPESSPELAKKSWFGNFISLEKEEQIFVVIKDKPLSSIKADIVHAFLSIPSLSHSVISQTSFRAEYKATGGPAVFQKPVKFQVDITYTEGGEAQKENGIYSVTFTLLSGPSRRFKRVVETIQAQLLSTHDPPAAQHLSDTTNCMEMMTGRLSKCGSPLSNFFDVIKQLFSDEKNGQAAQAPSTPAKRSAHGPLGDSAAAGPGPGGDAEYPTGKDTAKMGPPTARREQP
# Method in brief: as §1
# TAK1 = biological target: T8, TAK1 (Homo sapiens, UniProt O43318)
# T8 construct: gene MAP3K7
# Method in brief: as §1
# ERN1 = ERN1 (Homo sapiens, UniProt O75460)
# Method in brief: as §1
smiles,measurement,setting,value
C=C(C)[C@H]1CC=C(C)C(=O)C1 [S-carvone],remaining binding at 100 µM,TXK,89%
same,remaining binding at 100 µM,GSK3B,82%
same,remaining binding at 100 µM,MAP3K2,58%
same,remaining binding at 100 µM,[1],87%
same,remaining binding at 100 µM,ROCK1,100%
same,remaining binding at 100 µM,CDK4-cyclinD1,73%
same,remaining binding at 100 µM,ALK(C1156Y),70%
same,remaining binding at 100 µM,PAK2,98%
same,remaining binding at 100 µM,CSNK2A2,87%
same,remaining binding at 100 µM,ADCK4,92%
same,remaining binding at 100 µM,LZK,78%
same,remaining binding at 100 µM,SIK,67%
same,remaining binding at 100 µM,EGFR(G719S),72%
same,remaining binding at 100 µM,GRK3,58%
same,remaining binding at 100 µM,[2],88%
same,remaining binding at 100 µM,CDC2L5,74%
same,remaining binding at 100 µM,MYLK4,93%
same,remaining binding at 100 µM,KIT,82%
same,remaining binding at 100 µM,BRSK2,79%
same,remaining binding at 100 µM,TAK1,79%
same,remaining binding at 100 µM,ERN1,90%
